Measurements published in article PMC5218480 (PLoS ONE, 2017).

System: MV-4-11 cells
Assay: Gene expression microarray analysis (Affymetrix PrimeView) and GSEA
Assay type: cell-based, human
Design: RFU PODN (11730768_x_at) / Fold change /veh PODN (11730768_x_at) / RFU LINC00158 (11744669_a_at) / Fold change /veh LINC00158 (11744669_a_at) / RFU DUSP10 (11751237_a_at) / Fold change /veh DUSP10 (11751237_a_at) / RFU ID3 (11757404_x_at) / Fold change /veh ID3 (11757404_x_at) / RFU PLEKHG5 (11737974_s_at) / Fold change /veh PLEKHG5 (11737974_s_at) / RFU LRRC4B (11730491_at) / Fold change /veh LRRC4B (11730491_at) / RFU GIMAP4 (11747438_a_at) / Fold change /veh GIMAP4 (11747438_a_at) / RFU KRT8 (11758183_x_at) / Fold change /veh KRT8 (11758183_x_at) / RFU CNN1 (11734310_a_at) / Fold change /veh CNN1 (11734310_a_at) / RFU VPS37D (11726825_at) / Fold change /veh VPS37D (11726825_at) / RFU C10orf10 (11716522_x_at) / Fold change /veh C10orf10 (11716522_x_at) / RFU KIR2DL2 /// KIR2DL4 /// KIR2DL5A /// KIR2DL5B /// KIR2DS1 /// KIR2DS2 /// KIR2DS3 /// KIR2DS4 /// KIR3DL3 /// KIR3DL3 /// KIR3DS1 (11738374_at) / Fold change /veh KIR2DL2 /// KIR2DL4 /// KIR2DL5A /// KIR2DL5B /// KIR2DS1 /// KIR2DS2 /// KIR2DS3 /// KIR2DS4 /// KIR3DL3 /// KIR3DL3 /// KIR3DS1 (11738374_at) / RFU C1QL1 (11718748_at) / Fold change /veh C1QL1 (11718748_at) / RFU TMPRSS4 (11747572_a_at) / Fold change /veh TMPRSS4 (11747572_a_at) / RFU HAMP (11756126_x_at) / Fold change /veh HAMP (11756126_x_at) / RFU RNFT2 (11725882_a_at) / Fold change /veh RNFT2 (11725882_a_at) / RFU NR4A2 (11747474_a_at) / Fold change /veh NR4A2 (11747474_a_at) / RFU ABCC12 (11746883_a_at) / Fold change /veh ABCC12 (11746883_a_at) / RFU TMEM136 (11760407_x_at) / Fold change /veh TMEM136 (11760407_x_at) / RFU CLDN22 /// WWC2 (11732394_at) / Fold change /veh CLDN22 /// WWC2 (11732394_at) / RFU HLA-DPB1 (11760878_x_at) / Fold change /veh HLA-DPB1 (11760878_x_at) / RFU SPINT1 (11716480_a_at) / Fold change /veh SPINT1 (11716480_a_at) / RFU GAP43 (11754022_s_at) / Fold change /veh GAP43 (11754022_s_at) / RFU A4GNT (11735810_at) / Fold change /veh A4GNT (11735810_at) / RFU PRB3 (11715151_x_at) / Fold change /veh PRB3 (11715151_x_at) / RFU TUBB4B (11761932_at) / Fold change /veh TUBB4B (11761932_at) / RFU CAPN14 (11732068_a_at) / Fold change /veh CAPN14 (11732068_a_at) / RFU TMCC2 (11721928_a_at) / Fold change /veh TMCC2 (11721928_a_at) / RFU IRGQ (11745062_a_at) / Fold change /veh IRGQ (11745062_a_at) / RFU FAM174B (11720279_a_at) / Fold change /veh FAM174B (11720279_a_at) / RFU TMPRSS4 (11748680_a_at) / Fold change /veh TMPRSS4 (11748680_a_at) / RFU FAM212B (11763350_a_at) / Fold change /veh FAM212B (11763350_a_at) / RFU PLEKHG5 (11743358_a_at) / Fold change /veh PLEKHG5 (11743358_a_at) / RFU ZSCAN30 (11745921_a_at) / Fold change /veh ZSCAN30 (11745921_a_at) / RFU CMKLR1 (11741424_a_at) / Fold change /veh CMKLR1 (11741424_a_at) / RFU LOC101060620 /// MAPK8IP1 (11723275_at) / Fold change /veh LOC101060620 /// MAPK8IP1 (11723275_at) / RFU SPTSSB (11747773_x_at) / Fold change /veh SPTSSB (11747773_x_at) / RFU PRSS12 (11739890_at) / Fold change /veh PRSS12 (11739890_at) / RFU BIN1 (11741810_x_at) / Fold change /veh BIN1 (11741810_x_at) / RFU WNT11 (11732464_a_at) / Fold change /veh WNT11 (11732464_a_at) / RFU C10orf10 (11716521_a_at) / Fold change /veh C10orf10 (11716521_a_at) / RFU C5orf56 (11738089_at) / Fold change /veh C5orf56 (11738089_at) / RFU CYB561 (11721691_x_at) / Fold change /veh CYB561 (11721691_x_at) / RFU ANKRD19P (11752326_a_at) / Fold change /veh ANKRD19P (11752326_a_at) / RFU OR2T12 /// OR2T33 /// OR2T8 (11738714_s_at) / Fold change /veh OR2T12 /// OR2T33 /// OR2T8 (11738714_s_at) / RFU VCAN (11748164_a_at) / Fold change /veh VCAN (11748164_a_at) / RFU JSRP1 (11732532_at) / Fold change /veh JSRP1 (11732532_at) / RFU KRTAP10-11 (11738290_x_at) / Fold change /veh KRTAP10-11 (11738290_x_at) / RFU MYO3A (11730013_a_at) / Fold change /veh MYO3A (11730013_a_at) / RFU EBF3 (11725865_a_at) / Fold change /veh EBF3 (11725865_a_at) / RFU CAMK2N1 (11719241_x_at) / Fold change /veh CAMK2N1 (11719241_x_at) / RFU C5orf56 (11738088_a_at) / Fold change /veh C5orf56 (11738088_a_at) / RFU OLFML3 (11715873_a_at) / Fold change /veh OLFML3 (11715873_a_at) / RFU LOC100653217 /// NTM (11731650_a_at) / Fold change /veh LOC100653217 /// NTM (11731650_a_at) / RFU MAPK11 (11762145_a_at) / Fold change /veh MAPK11 (11762145_a_at) / RFU FIZ1 (11724087_x_at) / Fold change /veh FIZ1 (11724087_x_at) / RFU OASL (11726364_x_at) / Fold change /veh OASL (11726364_x_at) / RFU SOX15 (11748057_x_at) / Fold change /veh SOX15 (11748057_x_at) / RFU CD79A (11719716_a_at) / Fold change /veh CD79A (11719716_a_at) / RFU HIST1H1D (11736915_at) / Fold change /veh HIST1H1D (11736915_at) / RFU CASKIN2 (11723855_a_at) / Fold change /veh CASKIN2 (11723855_a_at) / RFU LOC730098 (11760151_x_at) / Fold change /veh LOC730098 (11760151_x_at) / RFU OR4N2 (11742367_at) / Fold change /veh OR4N2 (11742367_at) / RFU PRRT2 (11749266_a_at) / Fold change /veh PRRT2 (11749266_a_at) / RFU SNX32 (11753110_a_at) / Fold change /veh SNX32 (11753110_a_at) / RFU CDHR5 (11726645_a_at) / Fold change /veh CDHR5 (11726645_a_at) / RFU RCAN1 (11760418_a_at) / Fold change /veh RCAN1 (11760418_a_at) / RFU FAM167A (11723789_a_at) / Fold change /veh FAM167A (11723789_a_at) / RFU FAM26E (11764081_at) / Fold change /veh FAM26E (11764081_at) / RFU ISYNA1 (11749810_s_at) / Fold change /veh ISYNA1 (11749810_s_at) / RFU ACY1 (11761880_at) / Fold change /veh ACY1 (11761880_at) / RFU 11764098_at / Fold change /veh 11764098_at / RFU SAMD14 (11745864_x_at) / Fold change /veh SAMD14 (11745864_x_at) / RFU NPB (11741838_a_at) / Fold change /veh NPB (11741838_a_at) / RFU TMPRSS6 (11731388_a_at) / Fold change /veh TMPRSS6 (11731388_a_at) / RFU KRTAP10-2 (11738614_at) / Fold change /veh KRTAP10-2 (11738614_at) / RFU ARHGAP8 /// PRR5-ARHGAP8 (11727945_x_at) / Fold change /veh ARHGAP8 /// PRR5-ARHGAP8 (11727945_x_at) / RFU KRTAP5-7 /// NADSYN1 (11734609_at) / Fold change /veh KRTAP5-7 /// NADSYN1 (11734609_at) / RFU RASL12 (11751679_a_at) / Fold change /veh RASL12 (11751679_a_at) / RFU CDKN2B (11736163_a_at) / Fold change /veh CDKN2B (11736163_a_at) / RFU PRF1 (11729649_at) / Fold change /veh PRF1 (11729649_at) / RFU, ZNF638 /// ZNF638-IT1 / Fold change vs veh, ZNF638 /// ZNF638-IT1 / RFU, PANK3 / Fold change vs veh, PANK3 / RFU, SH3YL1 / Fold change vs veh, SH3YL1 / RFU, ZEB2 / Fold change vs veh, ZEB2 / RFU, NRIP1 / Fold change vs veh, NRIP1 / RFU, PTTG1IP / Fold change vs veh, PTTG1IP / RFU, CAPN2 / Fold change vs veh, CAPN2 / RFU, MED14 / Fold change vs veh, MED14 / RFU, SNORA58 / Fold change vs veh, SNORA58 / RFU, C1orf63 / Fold change vs veh, C1orf63 / RFU, LRRFIP1 / Fold change vs veh, LRRFIP1 / RFU, NDUFAF7 / Fold change vs veh, NDUFAF7 / RFU, SLC12A2 / Fold change vs veh, SLC12A2 / RFU, IBTK / Fold change vs veh, IBTK / RFU, ESF1 / Fold change vs veh, ESF1 / Fold change vs veh, TMEM50B / RFU, TAOK1 / Fold change vs veh, TAOK1 / RFU, ACBD3 / Fold change vs veh, ACBD3 / RFU, TMA16 / Fold change vs veh, TMA16 / RFU, RWDD3 / Fold change vs veh, RWDD3 / RFU, BCAT1 / Fold change vs veh, BCAT1 / RFU, EDEM3 / Fold change vs veh, EDEM3 / RFU, TMEM33 / Fold change vs veh, TMEM33 / RFU, WDR75 / Fold change vs veh, WDR75 / RFU, AHCTF1 / Fold change vs veh, AHCTF1 / RFU, TFRC / Fold change vs veh, TFRC / RFU, ZDHHC17 / Fold change vs veh, ZDHHC17 / RFU, NOM1 / Fold change vs veh, NOM1 / RFU, ARL8B / Fold change vs veh, ARL8B / RFU, ZBTB11 / Fold change vs veh, ZBTB11 / RFU, TAMM41 / Fold change vs veh, TAMM41 / RFU, KIAA1704 /// LOC100996395 / Fold change vs veh, KIAA1704 /// LOC100996395 / RFU, ING1 / Fold change vs veh, ING1 / RFU, TRMT61B / Fold change vs veh, TRMT61B / RFU, FUBP3 / Fold change vs veh, FUBP3 / RFU, TP53 / Fold change vs veh, TP53 / RFU, TNKS2 / Fold change vs veh, TNKS2 / RFU, ZFP14 / Fold change vs veh, ZFP14 / RFU, ACTR2 / Fold change vs veh, ACTR2 / RFU, PPP3R1 / Fold change vs veh, PPP3R1 / RFU, PIK3R1 / Fold change vs veh, PIK3R1 / RFU, HNRNPA1 / Fold change vs veh, HNRNPA1 / RFU, RNF170 / Fold change vs veh, RNF170 / RFU, ZNF28 / Fold change vs veh, ZNF28 / RFU, RNGTT / Fold change vs veh, RNGTT / RFU, OGT / Fold change vs veh, OGT / RFU, BRD1 / Fold change vs veh, BRD1 / RFU, MARS / Fold change vs veh, MARS / RFU, ZNF655 / Fold change vs veh, ZNF655 / RFU, FAHD1 / Fold change vs veh, FAHD1 / RFU, BDP1 / Fold change vs veh, BDP1 / RFU, LRRCC1 / Fold change vs veh, LRRCC1 / RFU, ARID1A / Fold change vs veh, ARID1A / RFU, ZNF146 / Fold change vs veh, ZNF146 / RFU, ZNF330 / Fold change vs veh, ZNF330 / RFU, GPN3 / Fold change vs veh, GPN3 / RFU, C9orf123 / Fold change vs veh, C9orf123 / RFU, N4BP2L2 / Fold change vs veh, N4BP2L2 / RFU, ARFIP1 / Fold change vs veh, ARFIP1 / RFU, FAM179B / Fold change vs veh, FAM179B / RFU, BCL10 / Fold change vs veh, BCL10 / RFU, UHRF1BP1L / Fold change vs veh, UHRF1BP1L / RFU, BET1 / Fold change vs veh, BET1 / RFU, CNOT2 / Fold change vs veh, CNOT2 / RFU, ZNF268 / Fold change vs veh, ZNF268 / Fold change vs veh, ZNF507 / RFU, DGCR2 / Fold change vs veh, DGCR2 / RFU, WDSUB1 / Fold change vs veh, WDSUB1 / Fold change vs veh, HSP90B1 /// MIR3652 / RFU, ADSS / Fold change vs veh, ADSS / RFU, GK / Fold change vs veh, GK / RFU, ZNF148 / Fold change vs veh, ZNF148 / RFU, TAF9 / Fold change vs veh, TAF9 / RFU, SLC1A5 / Fold change vs veh, SLC1A5 / RFU, SLMO2 / Fold change vs veh, SLMO2 / RFU, ABCC4 / Fold change vs veh, ABCC4 / RFU, LOC101060439 /// RAP1B / Fold change vs veh, LOC101060439 /// RAP1B / RFU, RFX7 / Fold change vs veh, RFX7 / RFU, GTPBP10 / Fold change vs veh, GTPBP10 / RFU, CNEP1R1 / Fold change vs veh, CNEP1R1 / RFU, BIVM-ERCC5 /// ERCC5 / Fold change vs veh, BIVM-ERCC5 /// ERCC5 / RFU, ILF3 / Fold change vs veh, ILF3 / RFU 11762660_at / Fold change /veh 11762660_at / RFU VCAN (11757783_s_at) / Fold change /veh VCAN (11757783_s_at) / RFU DDX43 (11728927_at) / Fold change /veh DDX43 (11728927_at) / RFU KRT8 (11758188_x_at) / Fold change /veh KRT8 (11758188_x_at) / RFU NKD1 (11759106_at) / Fold change /veh NKD1 (11759106_at) / RFU SRD5A1 (11742802_a_at) / Fold change /veh SRD5A1 (11742802_a_at) / RFU TPSAB1 /// TPSB2 (11721975_s_at) / Fold change /veh TPSAB1 /// TPSB2 (11721975_s_at) / RFU GSTM3 (11746129_a_at) / Fold change /veh GSTM3 (11746129_a_at) / RFU IL23R (11737362_x_at) / Fold change /veh IL23R (11737362_x_at) / RFU TMEM51 (11727254_a_at) / Fold change /veh TMEM51 (11727254_a_at) / RFU PIWIL2 (11732686_x_at) / Fold change /veh PIWIL2 (11732686_x_at) / RFU ORM1 (11744905_x_at) / Fold change /veh ORM1 (11744905_x_at) / RFU CCDC152 (11743942_at) / Fold change /veh CCDC152 (11743942_at) / RFU ECM1 (11717891_a_at) / Fold change /veh ECM1 (11717891_a_at) / RFU IL23R (11748794_a_at) / Fold change /veh IL23R (11748794_a_at) / RFU TNFAIP8L3 (11732012_x_at) / Fold change /veh TNFAIP8L3 (11732012_x_at) / RFU MBOAT4 (11741988_at) / Fold change /veh MBOAT4 (11741988_at) / RFU 11764193_at / Fold change /veh 11764193_at / RFU TMEM53 (11763286_at) / Fold change /veh TMEM53 (11763286_at) / RFU MAGEB2 (11727129_at) / Fold change /veh MAGEB2 (11727129_at) / RFU TMEM200A (11744735_a_at) / Fold change /veh TMEM200A (11744735_a_at) / RFU CCDC152 (11751479_a_at) / Fold change /veh CCDC152 (11751479_a_at) / RFU FAM211A (11726209_a_at) / Fold change /veh FAM211A (11726209_a_at) / RFU RGS16 (11746705_a_at) / Fold change /veh RGS16 (11746705_a_at) / RFU VCAN (11755009_s_at) / Fold change /veh VCAN (11755009_s_at) / RFU RHOB (11743442_s_at) / Fold change /veh RHOB (11743442_s_at) / RFU RGS16 (11720943_a_at) / Fold change /veh RGS16 (11720943_a_at) / RFU RGS16 (11720944_at) / Fold change /veh RGS16 (11720944_at) / RFU, VPS4B / Fold change vs veh, VPS4B / RFU, CREB1 / Fold change vs veh, CREB1 / RFU, DNAJC13 / Fold change vs veh, DNAJC13 / RFU, GNAQ / Fold change vs veh, GNAQ / RFU, CDK5R1 / Fold change vs veh, CDK5R1 / RFU, ZRANB3 / Fold change vs veh, ZRANB3 / RFU, CUL4A / Fold change vs veh, CUL4A / RFU, CCNY / Fold change vs veh, CCNY / RFU, UFL1 / Fold change vs veh, UFL1 / RFU, COG3 / Fold change vs veh, COG3 / RFU, DIAPH2 / Fold change vs veh, DIAPH2 / RFU, SKA2 / Fold change vs veh, SKA2 / RFU, AFF3 / Fold change vs veh, AFF3 / RFU, LMF1 / Fold change vs veh, LMF1 / RFU, IPO11 / Fold change vs veh, IPO11 / RFU, DFFB / Fold change vs veh, DFFB / RFU, FOXP1 / Fold change vs veh, FOXP1 / RFU, CARD8 / Fold change vs veh, CARD8 / RFU, STRN3 / Fold change vs veh, STRN3 / RFU, ADK / Fold change vs veh, ADK / RFU, RASSF2 / Fold change vs veh, RASSF2 / RFU, WIPF1 / Fold change vs veh, WIPF1 / RFU, LARP1B / Fold change vs veh, LARP1B / RFU, RASA1 / Fold change vs veh, RASA1 / RFU, RB1 / Fold change vs veh, RB1 / RFU, PPFIA1 / Fold change vs veh, PPFIA1 / RFU, MAT2A / Fold change vs veh, MAT2A / RFU, CCT5 / Fold change vs veh, CCT5 / RFU, WDR92 / Fold change vs veh, WDR92 / RFU, CUX1 / Fold change vs veh, CUX1 / RFU, TTC7A / Fold change vs veh, TTC7A / RFU, TMEM135 / Fold change vs veh, TMEM135 / RFU, DEPTOR / Fold change vs veh, DEPTOR / RFU, CPM / Fold change vs veh, CPM / RFU, DNAJB6 / Fold change vs veh, DNAJB6 / RFU, CACNA2D3 / Fold change vs veh, CACNA2D3 / RFU, DTX4 / Fold change vs veh, DTX4 / RFU, TFCP2 / Fold change vs veh, TFCP2 / RFU, GMCL1 /// GMCL1P1 / Fold change vs veh, GMCL1 /// GMCL1P1 / RFU, AEBP2 / Fold change vs veh, AEBP2 / RFU, SNHG1 /// SNORD22 /// SNORD25 /// SNORD26 /// SNORD27 /// SNORD28 /// SNORD29 /// SNORD31 / Fold change vs veh, SNHG1 /// SNORD22 /// SNORD25 /// SNORD26 /// SNORD27 /// SNORD28 /// SNORD29 /// SNORD31 / Fold change (Aza/veh), C12orf56 (ProbeSet 11735607_a_at) / Fold change (ACY-1035/veh), C12orf56 (ProbeSet 11735607_a_at) / Fold change (Aza/veh), FGFR1OP (ProbeSet 11751329_s_at) / Fold change (ACY-1035/veh), FGFR1OP (ProbeSet 11751329_s_at) / Fold change (Aza/veh), VPS36 (ProbeSet 11739960_a_at) / Fold change (ACY-1035/veh), VPS36 (ProbeSet 11739960_a_at) / RFU SYPL1 (11715823_x_at) / Fold change /veh SYPL1 (11715823_x_at) / RFU IGFBP7 (11715501_s_at) / Fold change /veh IGFBP7 (11715501_s_at) / RFU REEP3 (11722064_at) / Fold change /veh REEP3 (11722064_at) / RFU IGLL1 (11728026_x_at) / Fold change /veh IGLL1 (11728026_x_at): dose or concentration left out as unconfirmed
Details: ProbeSet 11746640_a_at; LIST D

SMILES: Nc1ccc(-c2cccs2)cc1NC(=O)c1ccc2c(c1)cc(C1CC1)n2CCN1CCOCC1 [ACY-1035]
- RFU, RASSF2: 39.78 RFU
